Test results taken from patent US7470794B2, “Preparation and use of ortho-sulfonamido aryl hydroxamic acids as matrix metalloproteinase inhibitors” (Wyeth, priority 2000, dated 2008).
Read-outs that look alike come from different tables or passages of the source.

Assays:
MMP-9 = MMP-9 (Homo sapiens, UniProt P14780); test: MMP-9 inhibition (thiopeptide or fluorescent peptide substrate assay); assay type: biochemical
Protocol: (§1) These assays are based on the cleavage of a thiopeptide substrates such as Ac-Pro-Leu-Gly(2-mercapto-4-methyl-pentanoyl)-Leu-Gly-OEt by the matrix metalloproteinases MMP-1, MMP-13 (collagenases) or MMP-9 (gelatinase), which results in the release of a substrate product that reacts colorimetrically with DTNB (5,5′-dithiobis(2-nitro-benzoic acid)). The enzyme activity is measured by the rate of the color increase. The thiopeptide substrate is made up fresh as a 20 mM stock in 100% DMSO and the DTNB is dissolved in 100% DMSO as a 100 mM stock and stored in the dark at room temperature. Both the substrate and DTNB are diluted together to 1 mM with substrate buffer (50 mM HEPES pH 7.5, 5 mM CaCl2) before use. The stock of enzyme is diluted with assay buffer (50 mM HEPES, pH 7.5, 5 mM CaCl2, 0.02% Brij) to the desired final concentration. The assay buffer, enzyme, vehicle or inhibitor, and DTNB/substrate are added in this order to a 96 well plate (total reaction volume of 200 μl) and the increase in color is monitored spectrophotometrically for 5 minutes at 405 nm on a plate reader and the increase in color over time is plotted as a linear line.
(§2) Alternatively, a fluorescent peptide substrate is used. In this assay, the peptide substrate contains a fluorescent group and a quenching group. Upon cleavage of the substrate by an MMP, the fluorescence that is generated is quantitated on the fluorescence plate reader. The assay is run in HCBC assay buffer (50 mM HEPES, pH 7.0, 5 mM Ca^+2, 0.02% Brij, 0.5% Cysteine), with human recombinant MMP-1, MMP-9, or MMP-13. The substrate is dissolved in methanol and stored frozen in 1 mM aliquots. For the assay, substrate and enzymes are diluted in HCBC buffer to the desired concentrations. Compounds are added to the 96 well plate containing enzyme and the reaction is started by the addition of substrate. The reaction is read (excitation 340 nm, emission 444 nm) for 10 min. and the increase in fluorescence over time is plotted as a linear line.
(§3) For either the thiopeptide or fluorescent peptide assays, the slope of the line is calculated and represents the reaction rate. The linearity of the reaction rate is confirmed (r^2>0.85). The mean (x±sem) of the control rate is calculated and compared for statistical significance (p<0.05) with drug-treated rates using Dunnett's multiple comparison test. Dose-response relationships can be generated using multiple doses of drug and IC50 values with 95% CI are estimated using linear regression.

MMP-13 = MMP-13 (Homo sapiens, UniProt P45452); test: MMP-13 inhibition (thiopeptide or fluorescent peptide substrate assay); assay type: biochemical
Protocol: as §1, §2, §3

[1] = target: T1, tumor necrosis factor-alpa converting enzyme (TACE; Immunex) (Homo sapiens, UniProt P78536); test: TACE inhibition (fluorescent peptidyl substrate assay); assay type: biochemical; settings: 1 μM test compound
T1 construct: purchased Immunex
T1 sequence (P78536 215-824): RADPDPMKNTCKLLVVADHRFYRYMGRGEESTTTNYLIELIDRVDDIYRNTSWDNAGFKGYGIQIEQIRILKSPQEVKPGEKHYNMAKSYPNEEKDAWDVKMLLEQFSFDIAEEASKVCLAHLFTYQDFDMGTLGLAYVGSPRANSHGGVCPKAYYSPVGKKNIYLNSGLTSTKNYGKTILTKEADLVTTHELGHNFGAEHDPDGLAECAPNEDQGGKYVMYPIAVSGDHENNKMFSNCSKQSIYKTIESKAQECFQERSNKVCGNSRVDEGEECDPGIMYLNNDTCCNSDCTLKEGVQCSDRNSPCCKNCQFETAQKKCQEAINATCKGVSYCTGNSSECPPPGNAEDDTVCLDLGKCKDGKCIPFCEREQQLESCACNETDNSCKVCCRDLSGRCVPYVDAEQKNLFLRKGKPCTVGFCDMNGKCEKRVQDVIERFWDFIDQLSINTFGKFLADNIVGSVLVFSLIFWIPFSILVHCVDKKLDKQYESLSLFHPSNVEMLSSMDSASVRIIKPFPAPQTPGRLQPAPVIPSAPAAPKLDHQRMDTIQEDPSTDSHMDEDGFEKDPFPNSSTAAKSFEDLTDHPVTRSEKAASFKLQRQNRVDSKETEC
Protocol: Using 96-well black microtiter plates, each well receives a solution composed of 10 μL tumor necrosis factor-alpa converting enzyme (TACE; Immunex, final concentration 1 μg/mL), 70 μL Tris buffer, pH 7.4 containing 10% glycerol (final concentration 10 mM), and 10 μL of test compound solution in DMSO (final concentration 1 μM, DMSO concentration <1%) and incubated for 10 minutes at room temperature. The reaction is initiated by addition of a fluorescent peptidyl substrate (final concentration 100 μM) to each well and then shaking on a shaker for 5 sec.
The reaction is read (excitation 340 nm, emission 420 nm) for 10 min. and the increase in fluorescence over time is plotted as a linear line. The slope of the line is calculated and represents the reaction rate.
as §3, with “The” for “For either the thiopeptide or fluorescent peptide assays, the slope of the line is calculated and represents the reaction rate. The”, “generate” for “generated”

MMP-1 = target: T2, MMP-1 (Homo sapiens, UniProt P03956); test: MMP-1 inhibition (thiopeptide or fluorescent peptide substrate assay); assay type: biochemical
T2 sequence (P03956 100-469): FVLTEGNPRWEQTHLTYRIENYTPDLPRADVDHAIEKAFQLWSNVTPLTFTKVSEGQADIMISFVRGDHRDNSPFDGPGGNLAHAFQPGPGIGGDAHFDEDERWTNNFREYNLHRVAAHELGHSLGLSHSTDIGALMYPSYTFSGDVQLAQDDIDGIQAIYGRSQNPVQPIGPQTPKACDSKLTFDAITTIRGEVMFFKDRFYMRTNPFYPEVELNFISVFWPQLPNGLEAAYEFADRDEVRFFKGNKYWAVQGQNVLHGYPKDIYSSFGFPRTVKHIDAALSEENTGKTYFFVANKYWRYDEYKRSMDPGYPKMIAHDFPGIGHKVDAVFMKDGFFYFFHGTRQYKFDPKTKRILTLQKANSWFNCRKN
Protocol: as §1, §2, §3

Sequence of MMP-9 (P14780 94-707): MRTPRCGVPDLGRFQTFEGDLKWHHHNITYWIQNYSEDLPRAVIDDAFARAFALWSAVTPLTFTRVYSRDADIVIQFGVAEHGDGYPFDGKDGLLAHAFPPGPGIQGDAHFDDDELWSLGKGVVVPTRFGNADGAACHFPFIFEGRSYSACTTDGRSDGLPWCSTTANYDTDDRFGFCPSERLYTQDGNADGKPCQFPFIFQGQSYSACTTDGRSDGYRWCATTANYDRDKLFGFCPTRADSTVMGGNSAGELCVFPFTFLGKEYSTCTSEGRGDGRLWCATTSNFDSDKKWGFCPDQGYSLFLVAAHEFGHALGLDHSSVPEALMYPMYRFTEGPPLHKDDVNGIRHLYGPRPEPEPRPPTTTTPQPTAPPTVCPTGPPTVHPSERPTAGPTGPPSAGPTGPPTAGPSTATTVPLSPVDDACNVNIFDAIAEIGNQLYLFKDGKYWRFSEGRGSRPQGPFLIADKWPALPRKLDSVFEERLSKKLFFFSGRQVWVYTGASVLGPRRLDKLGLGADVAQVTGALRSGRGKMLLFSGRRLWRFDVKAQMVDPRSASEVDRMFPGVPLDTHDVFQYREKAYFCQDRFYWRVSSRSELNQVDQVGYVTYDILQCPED

Compound	IC50 (MMP-9) [nM]	IC50 (MMP-13) [nM]	melting point [°C]	IC50 (MMP-1) [µM]	IC50 (MMP-1; cells printed in μM) [µM]	inhibition at 1 µM [1] [%]	TACE % inhibition @ 1 μM [1] [%]
Cc1cccc(C(=O)NO)c1N(C)S(=O)(=O)c1ccc(OCCNC(=O)c2ccc3ccccc3n2)cc1 [Example 4, Quinoline-2-carboxylic acid(2-{4-[(2-hydroxycarbamoyl-6-methyl-phenyl)-methyl-sulfamoyl]-phenoxy}-ethyl)-amide]	337	73	114 to 121	4.24	–	19.9	–
Cc1cccc(C(=O)NO)c1N(C)S(=O)(=O)c1ccc(OCCCNC(=O)c2cc3ccccc3[nH]2)cc1 [Example 10, 1H-Indole-2-carboxylic acid(3-{4-[(2-hydroxycarbamoyl-6-methyl-phenyl)-methyl-sulfamoyl]-phenoxy}-propyl)-amide]	305	178	144 to 146	5.64	–	35.7	–
Cc1cccc(C(=O)NO)c1N(C)S(=O)(=O)c1ccc(OCCNC(=O)c2cc3ccccc3s2)cc1 [Example 12, Benzo[b]thiophene-2-carboxylic acid(2-{4-[(2-hydroxycarbamoyl-6-methyl-phenyl)-methyl-sulfamoyl]-phenoxy}-ethyl)-amide]	914	595	169 to 171	–	> 10	15.2	–
Cc1cccc(C(=O)NO)c1N(C)S(=O)(=O)c1ccc(OCCCNC(=O)c2cc3ccccc3s2)cc1 [Example 27, N-{3-[4-({2-[(Hydroxyamino)carbonyl]-6-dimethylanilino}-sulfonyl)phenoxy]propyl}-1-benzothiophene-2-carboxamide]	1390	43	100 to 105	–	30	22	–

Continued by falling IC50 (MMP-13), values first:

IC50 (MMP-9) [nM]	IC50 (MMP-13) [nM]	melting point [°C]	IC50 (MMP-1) [µM]	IC50 (MMP-1; cells printed in μM) [µM]	Compound	inhibition at 1 µM [1] [%]	TACE % inhibition @ 1 μM [1] [%]
84	467	131 to 134	5.12	–	Cc1cccc(C(=O)NO)c1N(C)S(=O)(=O)c1ccc(OCCCCNC(=O)c2cc3ccccc3o2)cc1 [Example 8, Benzofuran-2-carboxylic acid(4-{4-[(2-hydroxycarbamoyl-6-methyl-phenyl)-methyl-sulfamoyl]-phenoxy}-butyl)-amide]	43.6	–
63.6	110	102 to 112	1.48	–	Cc1cccc(C(=O)NO)c1N(C)S(=O)(=O)c1ccc(OCCCNC(=O)c2ccc3c(c2)OCO3)cc1 [Example 14, N-{3-[4-({2-[(hydroxyamino)carbonyl]-6, N-dimethylanilino}sulfonyl)phenoxy]propyl}-1,3-benzodioxole-5-carboxamide]	42.1	–
55.7	83.5	–	0.999	–	N-{4-[4-({2-[(hydroxyamino)carbonyl]-6, N-dimethylanilino}sulfonyl)phenoxy]butyl}-1,3-benzodioxole-5-carboxamide [Example 16]	–	27.4
–	17.1	–	–	–	Cc1cc(C)c(N(Cc2ccccc2)S(=O)(=O)c2ccc(OCCNC(=O)c3cc4ccccc4o3)cc2)c(C(=O)NO)c1 [Example 31, Benzofuran-2-carboxylic acid(2-{4-[benzyl-(2-hydroxycarbamoyl-4,6-dimethyl-phenyl)-sulfamoyl]-phenoxy}-ethyl)-amide]	18.9	–
510	4.9	148 to 150	5.45	–	Cc1cccc(C(=O)NO)c1N(C)S(=O)(=O)c1ccc(OCCCNC(=O)c2cc3ccccc3o2)cc1 [Example 6, Benzofuran-2-carboxylic acid(3-{4-[(2-hydroxycarbamoyl-6-methyl-phenyl)-methyl-sulfamoyl]-phenoxy}-propyl)-amide]	21.3	–
